Experimental data as given in patent US20230089867A1, “CYCLIC PENTAMER COMPOUNDS AS PROPROTEIN CONVERTASE SUBTILISIN/KEXIN TYPE 9 (PCSK9) INHIBITORS FOR THE TREATMENT OF METABOLIC DISORDER” (Novartis AG, priority 2018, published 2023).

Molecular target: human PCSK9 (Homo sapiens, UniProt Q8NBP7)
Experiment: PCSK9 ligand binding TR-FRET assay (interference with binding of human PCSK9 to human LDLR)
Conditions: for Max % inhibition: PCSK9 FRET assay, efficacy (Amax), 100% = 1 uM unlabeled human PCSK9, 0% = DMSO; for IC50: TR-FRET, human PCSK9 Alexa Fluor 647 / human LDLR extracellular domain-Europium Kryptate, read-out: PCSK9 FRET Assay IC50
How it was run: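 Threefold compound dilutions were pre-incubated 30 min with PCSK9, after which 4 nM Europium Kryptate-tagged human LDLR ectodomain was added for a further 2 h.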

Chain of human PCSK9 (Q8NBP7 153-692): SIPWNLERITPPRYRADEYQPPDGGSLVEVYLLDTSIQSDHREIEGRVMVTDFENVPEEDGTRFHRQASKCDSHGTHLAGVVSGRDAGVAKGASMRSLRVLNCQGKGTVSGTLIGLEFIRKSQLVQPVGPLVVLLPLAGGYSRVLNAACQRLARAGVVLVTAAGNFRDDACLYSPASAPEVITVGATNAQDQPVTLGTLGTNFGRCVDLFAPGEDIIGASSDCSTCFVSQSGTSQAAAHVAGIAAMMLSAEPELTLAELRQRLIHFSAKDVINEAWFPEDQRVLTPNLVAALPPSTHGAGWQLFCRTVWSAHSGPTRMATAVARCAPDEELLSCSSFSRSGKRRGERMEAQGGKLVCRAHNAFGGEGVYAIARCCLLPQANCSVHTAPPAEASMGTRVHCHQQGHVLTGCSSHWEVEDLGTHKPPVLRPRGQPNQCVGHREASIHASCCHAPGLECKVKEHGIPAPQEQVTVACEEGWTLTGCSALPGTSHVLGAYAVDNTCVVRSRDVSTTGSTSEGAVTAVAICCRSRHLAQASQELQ
Chain of human PCSK9 (Q8NBP7 31-152 partner limits assumed): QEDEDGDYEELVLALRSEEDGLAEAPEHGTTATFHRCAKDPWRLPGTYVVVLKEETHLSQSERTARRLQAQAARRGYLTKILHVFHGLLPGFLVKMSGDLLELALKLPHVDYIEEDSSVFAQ

SMILES	Max % inhibition [%]	IC50 [nM]
COC[C@@H]1NC(=O)[C@H](C)N(Cc2c(C)cccc2Oc2ccc(-c3cnc(CN(C)C)n3C)cc2)C(=O)C[C@@H](Cc2ccccc2)C(=O)N(C)[C@@H](C)CNC(=O)C[C@H](Cc2ccc(Cl)cc2)N(C)C1=O [Compound 88, (2S,5S,8S,13S,16R)-16-benzyl-8-(4-chlorobenzyl)-1-(2-(4-(2-((dimethylamino)methyl)-1-methyl-1H-imidazol-5-yl)phenoxy)-6-methylbenzyl)-5-(methoxymethyl)-2,7,13,14-tetramethyl-1,4,7,11,14-pentaazacyclooctadecane-3,6,10,15,18-pentaone]	90.30	40.1
COC[C@@H]1NC(=O)[C@H](CCCN(C)C)N(Cc2ccc(Cl)cc2Oc2ccc(-c3cnc(CN(C)C)n3C)cc2)C(=O)C[C@@H](Cc2ccccc2)C(=O)N(C)[C@@H](C)[C@H](C)NC(=O)C[C@H](Cc2ccc(Cl)cc2)N(C)C1=O [Compound 90, (2S,5S,8S,12S,13S,16R)-16-benzyl-1-(4-chloro-2-(4-(2-((dimethylamino)methyl)-1-methyl-1H-imidazol-5-yl)phenoxy)benzyl)-8-(4-chlorobenzyl)-2-(3-(dimethylamino)propyl)-5-(methoxymethyl)-7,12,13,14-tetramethyl-1,4,7,11,14-pentaazacyclooctadecane-3,6,10,15,18-pentaone]	101.52	2.1
COC[C@@H]1NC(=O)[C@@H](CCN(C)C)N(Cc2ccc(Cl)cc2Oc2ccc(-c3cnc(CN(C)C)n3C)cc2)C(=O)C[C@@H](Cc2ccccn2)C(=O)N(C)[C@H]2CCCC[C@@H]2NC(=O)C[C@H](Cc2ccc(Cl)cc2)N(C)C1=O [Compound 91, (4S,7S,10R,14R,16aS,20aS)-11-(4-chloro-2-(4-(2-((dimethylamino)methyl)-1-methyl-1H-imidazol-5-yl)phenoxy)benzyl)-4-(4-chlorobenzyl)-10-(2-(dimethylamino)ethyl)-7-(methoxymethyl)-5,16-dimethyl-14-(pyridin-2-ylmethyl)hexadecahydrobenzo[l][1,4,7,11,14]pentaazacyclooctadecine-2,6,9,12,15(3H)-pentaone]	86.95	168
COC[C@@H]1NC(=O)[C@H](C)N(Cc2ccc(Cl)cc2Oc2ccc(-c3cnc(OC(C)C)n3C)cc2)C(=O)C[C@@H](Cc2ccccc2)C(=O)N(C)[C@@H](C)CNC(=O)C[C@H](Cc2ccc(Cl)cc2)N(C)C1=O [Compound 92, (2S,5S,8S,13S,16R)-16-benzyl-1-(4-chloro-2-(4-(2-isopropoxy-1-methyl-1H-imidazol-5-yl)phenoxy)benzyl)-8-(4-chlorobenzyl)-5-(methoxymethyl)-2,7,13,14-tetramethyl-1,4,7,11,14-pentaazacyclooctadecane-3,6,10,15,18-pentaone]	61.54	64.6
COC[C@@H]1NC(=O)[C@H](CCC(=O)N2CCOCC2)N(Cc2ccc(Cl)cc2Oc2ccc(-c3cnc(CN(C)C)n3C)cc2)C(=O)C[C@@H](Cc2ccccc2)C(=O)N(C)[C@H]2CCCC[C@@H]2NC(=O)C[C@H](Cc2ccc(Cl)cc2)N(C)C1=O [Compound 93, (4S,7S,10S,14R,16aS,20aS)-14-benzyl-11-(4-chloro-2-(4-(2-((dimethylamino)methyl)-1-methyl-1H-imidazol-5-yl)phenoxy)benzyl)-4-(4-chlorobenzyl)-7-(methoxymethyl)-5,16-dimethyl-10-(3-morpholino-3-oxopropyl)hexadecahydrobenzo[l][1,4,7,11,14]pentaazacyclooctadecine-2,6,9,12,15(3H)-pentaone]	96.70	6.3
COC[C@@H]1NC(=O)[C@H](CCN2CCOCC2)N(Cc2ccc(Cl)cc2Oc2ccc(-c3cnc(CN(C)C)n3C)cc2)C(=O)C[C@@H](Cc2ccccc2)C(=O)N(C)[C@@H](C)[C@H](C)NC(=O)C[C@H](Cc2ccc(Cl)cc2)N(C)C1=O [Compound 94, (2S,5S,8S,12S,13S,16R)-16-benzyl-1-(4-chloro-2-(4-(2-((dimethylamino)methyl)-1-methyl-1H-imidazol-5-yl)phenoxy)benzyl)-8-(4-chlorobenzyl)-5-(methoxymethyl)-7,12,13,14-tetramethyl-2-(2-morpholinoethyl)-1,4,7,11,14-pentaazacyclooctadecane-3,6,10,15,18-pentaone]	104.90	2.4
COC[C@@H]1NC(=O)[C@H](C)N(Cc2ccc(Cl)cc2Oc2ccc(-c3cnc(CN(C)C)n3C)cc2)C(=O)C[C@@H](CC(F)=C(F)F)C(=O)N(C)[C@H]2CCCC[C@@H]2NC(=O)C[C@H](Cc2ccc(Cl)cc2)N(C)C1=O [Compound 96, (4S,7S,10S,14S,16aS,20aS)-11-(4-chloro-2-(4-(2-((dimethylamino)methyl)-1-methyl-1H-imidazol-5-yl)phenoxy)benzyl)-4-(4-chlorobenzyl)-7-(methoxymethyl)-5,10,16-trimethyl-14-(2,3,3-trifluoroallyl)hexadecahydrobenzo[l][1,4,7,11,14]pentaazacyclooctadecine-2,6,9,12,15(3H)-pentaone]	78.14	304
COC[C@@H]1NC(=O)[C@H](CC(F)F)N(Cc2ccc(Cl)cc2Oc2ccc(-c3cnc(CN4CCCC4)n3C)cc2)C(=O)C[C@@H](Cc2ccccc2)C(=O)N(C)[C@@H](C)CNC(=O)C[C@H](Cc2ccc(Cl)cc2)N(C)C1=O [Compound 97, (2S,5S,8S,13S,16R)-16-benzyl-1-(4-chloro-2-(4-(1-methyl-2-(pyrrolidin-1-ylmethyl)-1H-imidazol-5-yl)phenoxy)benzyl)-8-(4-chlorobenzyl)-2-(2,2-difluoroethyl)-5-(methoxymethyl)-7,13,14-trimethyl-1,4,7,11,14-pentaazacyclooctadecane-3,6,10,15,18-pentaone]	90.83	2.2
COC[C@@H]1NC(=O)[C@H](C)N(Cc2ccc(Cl)cc2Oc2ccc(-c3cnc(CN(C)C)n3C)cc2)C(=O)C[C@@H](Cc2cc(F)cc(F)c2F)C(=O)N(C)[C@@H](C)CNC(=O)C[C@H](Cc2ccc(Cl)cc2)N(C)C1=O [Compound 98, (2S,5S,8S,13S,16R)-1-(4-chloro-2-(4-(2-((dimethylamino)methyl)-1-methyl-1H-imidazol-5-yl)phenoxy)benzyl)-8-(4-chlorobenzyl)-5-(methoxymethyl)-2,7,13,14-tetramethyl-16-(2,3,5-trifluorobenzyl)-1,4,7,11,14-pentaazacyclooctadecane-3,6,10,15,18-pentaone]	98.16	1.9
COC[C@@H]1NC(=O)[C@H](C)N(Cc2ccc(Cl)cc2Oc2ccc(-c3cnc(CN(C)C)n3C)cc2)C(=O)C[C@@H](CC23CC(C2)C3)C(=O)N(C)[C@H]2CCCC[C@@H]2NC(=O)C[C@H](Cc2ccc(Cl)cc2)N(C)C1=O [Compound 100, (4S,7S,10S,14R,16aS,20aS)-14-(bicyclo[1.1.1]pentan-1-ylmethyl)-11-(4-chloro-2-(4-(2-((dimethylamino)methyl)-1-methyl-1H-imidazol-5-yl)phenoxy)benzyl)-4-(4-chlorobenzyl)-7-(methoxymethyl)-5,10,16-trimethylhexadecahydrobenzo[l][1,4,7,11,14]pentaazacyclooctadecine-2,6,9,12,15(3H)-pentaone]	105.41	5.4

These reach a lower IC50. Values come first.

Max % inhibition [%]	IC50 [nM]	SMILES
85.89	1.6	COC[C@@H]1NC(=O)[C@H](C)N(Cc2ccc(Cl)cc2Oc2ccc(-c3cnc(CN(C)C)n3C)cc2)C(=O)C[C@@H](CC#N)C(=O)N(C)[C@H]2CCCC[C@@H]2NC(=O)C[C@H](Cc2ccc(Cl)cc2)N(C)C1=O [Compound 89, 2-((4S,7S,10S,14R,16aS,20aS)-11-(4-chloro-2-(4-(2-((dimethylamino)methyl)-1-methyl-1H-imidazol-5-yl)phenoxy)benzyl)-4-(4-chlorobenzyl)-7-(methoxymethyl)-5,10,16-trimethyl-2,6,9,12,15-pentaoxodocosahydrobenzo[l][1,4,7,11,14]pentaazacyclooctadecin-14-yl)acetonitrile]
104.58	0.8	COC[C@@H]1NC(=O)[C@H](CCC(=O)N2CC3(COC3)C2)N(Cc2ccc(Cl)cc2Oc2ccc(-c3cnc(CN(C)C)n3C)cc2)C(=O)C[C@@H](Cc2ccccc2)C(=O)N(C)[C@@H](C)CNC(=O)C[C@H](Cc2ccc(Cl)cc2)N(C)C1=O [Compound 95, (2S,5S,8S,13S,16R)-16-benzyl-1-(4-chloro-2-(4-(2-((dimethylamino)methyl)-1-methyl-1H-imidazol-5-yl)phenoxy)benzyl)-8-(4-chlorobenzyl)-5-(methoxymethyl)-7,13,14-trimethyl-2-(3-oxo-3-(2-oxa-6-azaspiro[3.3]heptan-6-yl)propyl)-1,4,7,11,14-pentaazacyclooctadecane-3,6,10,15,18-pentaone]
104.20	1.6	COC[C@@H]1NC(=O)[C@H](C)N(Cc2ccc(Cl)cc2Oc2ccc(-c3cnc(CN(C)C)n3C)cc2)C(=O)C[C@@H](Cc2ccccc2C#N)C(=O)N(C)[C@@H](C)[C@H](C)NC(=O)C[C@H](Cc2ccc(Cl)cc2)N(C)C1=O [Compound 99, 2-(((2S,5S,8S,12S,13S,16R)-1-(4-chloro-2-(4-(2-((dimethylamino)methyl)-1-methyl-1H-imidazol-5-yl)phenoxy)benzyl)-8-(4-chlorobenzyl)-5-(methoxymethyl)-2,7,12,13,14-pentamethyl-3,6,10,15,18-pentaoxo-1,4,7,11,14-pentaazacyclooctadecan-16-yl)methyl)benzonitrile]
94.32	1.1	COC[C@@H]1NC(=O)[C@H](CCN2CCOCC2)N(Cc2ccc(Cl)cc2Oc2ccc(-c3cnc(CN(C)C)n3C)cc2)C(=O)C[C@@H](Cc2ccccc2)C(=O)N(C)[C@H]2CCCC[C@@H]2NC(=O)C[C@H](Cc2ccc(Cl)cc2)N(C)C1=O [Compound 101, (4S,7S,10S,14R,16aS,20aS)-14-benzyl-11-(4-chloro-2-(4-(2-((dimethylamino)-methyl)-1-methyl-1H-imidazol-5-yl)phenoxy)benzyl)-4-(4-chlorobenzyl)-7-(methoxymethyl)-5,16-dimethyl-10-(2-morpholinoethyl)hexadecahydrobenzo-[l][1,4,7,11,14]pentaazacycloocta-decine-2,6,9,12,15(3H)-pentaone]
